Converted amounts (≈) assume the structure as drawn. Like-named read-outs stand apart in the source and are kept apart here.
Columns and labels:
[1] = Metabolic stability in mouse liver microsomes; conditions: for half-life: mouse, liver microsomes
Method: (§1) The effects of changing R1 as 7-Et, 7-Me, 6-CF3, or 6-Me on activity against RH strain tachyzoites, kinetic solubility, and metabolic stability were compared. Kinetic solubility and metabolic stability in human or murine liver microsomes were measured. The hERG (human Ether-à-go-go-Related) liability was also determined. The hERG gene (KCNH2) encodes a protein Kv11.1, the alpha subunit of a potassium ion channel. This channel conducts the rapid component of the delayed rectifier potassium current, IKr, which is critical for repolarization of cardiac action potentials. A reduction in hERG currents from adverse drug effects can lead to long QT interval syndromes. These syndromes are characterized by action potential prolongation, lengthening of the QT interval on surface EKG, and an increased risk for “torsade de pointes” arrhythmias and sudden death. The MDCK-MDR1 Permeability Assay was also performed. MDCK-MDR1 refers to the ability of a compound to permeate across membranes of MDCK-MDR1 (Madin Darby canine kidney [MDCK] cells with the MDR1 gene [ABCB1], the gene encoding for the efflux protein, P-glycoprotein (P-gp)) in vitro. Assessing transport in both directions (apical to basolateral and basolateral to apical) across the cell monolayers enables an efflux ratio to be determined. […] This provides a prediction of blood brain barrier (BBB) penetration potential/permeability and efflux ratio. Effect in CACO-2 (Colon Adenocarcinoma cells) as a permeability assay and on cytochrome P450 (CYP 450) were also determined. CYP enzymes catalyze oxidative biotransformation (phase 1 metabolism) of most drugs. CYP enzymes, bind to membranes in a cell (cyto) and contain a heme pigment (chrome and P) that absorbs light at a wavelength of 450 nm when exposed to carbon monoxide. Metabolism of a drug by CYP enzymes is a major source of variability in drug effect. These were measured by Chem Partners. The relative effect on HFF and parasite enzymes also were compared.
(§2) In vitro absorption, distribution, metabolism, excretion, and toxicity (ADMET) analyses of the THQ compounds were outsourced to ChemPartner Shanghai Ltd. ELQ-271 (synthesized in-house) was tested as a comparison.

[2] = system: T. gondii EGS strain bradyzoites; experiment: In vitro challenge assay for EGS strain bradyzoites; format: cell-based, Toxoplasma gondii; conditions: for number of true cysts and small organisms: EGS strain, at 1 and 10 μM, immunofluorescence microscopy; for IC50: EGS strain in HFF, Figure 1A, read-out: Brady IC50
Method: HFF cells were grown in IMDM on removable, sterile glass cover slips in the bottom of a clear, flat-bottomed 24-well plate. Cultures were infected with 3 × 10^4 EGS strain parasites per well, in 0.5 mL media. The plate was returned to incubator at 37°C overnight. The following day, the media was removed. Colorless IMDM and compounds were added to make various concentrations of the drug. Total volume was 0.5 mL. Two wells had media only, as a control. Plates were returned to the 37°C incubator for 72 h, checked once each 24 h. If tachyzoites were visible in the control before 72 h, cells were fixed and stained. Cells were fixed using 4% paraformaldehyde and stained with Fluorescein-labeled Dolichos Biflorus Agglutinin, DAPI, and antibody to BAG1. Disks were removed, mounted on glass slides, and visualized using microscopy (Nikon Tl7). Slides were scanned using a CRi Panoramic Scan Whole Slide Scanner and viewed using Panoramic Viewer Software. Effects of compounds were quantitated by counting cysts in controls and treated cultures. Dolichos staining delimited structures and single organisms that remained were counted in a representative field of view. This was then multiplied by a factor determined by the total area of the cover slip in order to estimate the number of cysts and organisms in each condition. When the following forms were observed: “true cysts” with a dolichos-staining wall, “pseudocysts” or tight clusters of parasites, and small organisms, if there were fewer than four parasites visible in a cluster, organisms were counted individually (as “small organisms”). The entire scanned coverslip with all fields was also reviewed by 3 observers to confirm consistency.

HepG2 cells = experiment: Cytotoxicity with HepG2 cells; format: cell-based; conditions: Homo sapiens
Method: Toxicity studies also were performed with HepG2 cells (human liver cancer immortal cell line derived from the liver tissue of a […]) in parallel with the studies of P. falciparum, with inhibitors in vitro, as described in McPhillie et al. ([2016]).

[3] = Kinetic solubility in PBS pH 7.4 (Chem Partners)
Method: as §1

[4] = system: P. falciparum strains D6, TM91-C235, W2, C2B; experiment: Malaria SYBR Green I-Based Fluorescence (MSF) assay; format: cell-based; conditions: Plasmodium falciparum
Method: Malaria potency testing in vitro was performed using 4 different P. falciparum strains, D6, TM91-C235, W2, and C2B. The D6 strain is a drug sensitive strain from Sierra Leone, the TM91-C235 strain is a multi-drug resistant strain from Thailand, the W2 strain is a chloroquine resistant strain from Thailand, and the C2B strain is a multi-drug resistant strain with resistance against atovaquone. These assays were performed as described below.
Compound activity against P. falciparum, was tested using the Malaria SYBR Green I–Based Fluorescence (MSF) Assay. The complete method for performing this microtiter assay is described in previous work published by Plouffe et al. ([2008]) and Johnson et al. ([2007]). In brief, this assay uses the binding of the fluorescent dye SYBR Green I to malaria DNA to measure parasite growth in the presence of 2-fold diluted experimental or control. The relative fluorescence of the intercalated SYBR Green I proportional to parasite growth, and inhibitory compounds will result in lower observed fluorescence compared to untreated parasites.

[5] = Metabolic stability in human liver microsomes; conditions: for Human liver microsomes: stability, Figure 2E
Method: as §1, §2

[6] = T1/2 (M), predicted half-life in mouse liver microsomes, Figure 1A, min in Figure 2E for the same values
[7] = dose response testing, read-out: HEP G2 IC50
[8] = PBS, pH 7.4, aqueous solubility (PBS, pH 7.4), amorphous compounds
[9] = C2B, multi-drug resistant strain with resistance against atovaquone, read-out: SYBR Green C2B IC50
[10] = D6, drug sensitive strain, read-out: SYBR Green D6 IC50
[11] = TM91-C235, multi-drug resistant strain, read-out: SYBR Green C235 IC50
[12] = W2, chloroquine resistant strain, read-out: SYBR Green W2 IC50

In the case of `Cc1[nH]c2c(c(=O)c1-c1ccc(Oc3ccc(OC(F)(F)F)cc3)cc1)CCCC2` [JAG21, 2-Methyl-3-(4-(4-(Trifluoromethoxy)Phenoxy)Phenyl)-5,6,7,8-Tetrahydroquinolin-4-One], the half-life [1, 6] is reported as 1.68 h, the half-life ([1]; half-life in mouse liver microsomes) is reported as 1.68 h and the Mouse liver microsomes ([1]; stability, Figure 2E) is reported as 101.09 min. For the same compound, the “EGS bradyzoites in treated cultures” value ([2]; 500 nM) was “we do not see EGS bradyzoites”, the “number of true cysts and small organisms” value [2] was “statistically significant reduction” and the IC50 ([2]; Toxoplasma gondii) was 2000 nM. For the same compound, the IC90 ([2]; Toxoplasma gondii, supplement summary) was less than 1000 nM, the IC50 (HepG2 cells; [7]) was 17700 nM and the IC50 (HepG2 cells; supplement summary, read-out: IC50, human HepG2 cells) was greater than 17000 nM. It also gave a solubility [3, 8] of 7 µM (≈ 2.91 µg/mL), a solubility ([3]; PBS, pH 7.4, solubility of the microcrystalline form, microcrystalline form) of 3.5 µM (≈ 1.45 µg/mL) and a solubility ([3]; pH 7.4) of 7.07 µM (≈ 2.94 µg/mL). The IC50 [4, 9] was 40.4 nM, the IC50 ([4]; D6, TM91-C235, W2 and C2B, range over strains, read-out: IC50 values against drug sensitive and resistant strains) was 14 to 61 nM and the IC50 [4, 10] was 14.3 nM. The IC50 [4, 11] was 61.6 nM, the IC50 [4, 12] was 55.2 nM and the IC90 ([4]; supplement summary, read-out: IC90, drug resistant Plasmodium falciparum in vitro) was less than 50 nM. The “remaining in human liver microsomes” value ([5]; after 45 min) was greater than 99% and the Human liver microsomes [5] was “∞”.
For `Cc1[nH]c2c(c(=O)c1-c1ccc(Oc3ccc(Cl)cc3)cc1)CCCC2` [JAG50], the Mouse liver microsomes [1] was 68.55 min, the half-life [1, 6] was 1.14 h and the “number of true cysts and small organisms” value [2] was “statistically significant reduction”. It also gave an IC50 ([2]; Toxoplasma gondii) of 2000 nM, an IC50 (HepG2 cells; [7]) of 7100 nM and a solubility [3, 8] of 16 µM (≈ 5.85 µg/mL). For the same compound, the solubility ([3]; pH 7.4) was 16.4 µM (≈ 6 µg/mL), the IC50 [4, 9] was 36.4 nM and the IC50 [4, 10] was 46.6 nM. It also gave an IC50 [4, 11] of 69.1 nM, an IC50 [4, 12] of 31.4 nM and a half-life ([5]; human, liver microsomes) of 1.65 h. The Human liver microsomes [5] was 99.04 min.

From publication PMC7311950, “Potent Tetrahydroquinolone Eliminates Apicomplexan Parasites” (Frontiers in Cellular and Infection Microbiology, 2020)
